According to patent publication US7767659B2, “Synthesis of naturally occurring ecteinascidins and related compounds” (Pharma Mar, S.A., priority 2002, dated 2010):
Like-named read-outs stand apart in the source and are kept apart here.

How the values were obtained:
[1] = tested on: HT-29; assay: cells
Summary of the method: (§1)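 Colorimetric SRB read (490 nm) on triplicate wells after 48 h at 37 °C, 5% CO2. Dose range 10 to 10^−8 μg/ml; 5×10^3 cells/well pre-attached 18 h.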

[2] = tested on: A-549; assay: cells
Summary of the method: as §1

[3] = tested on: LoVo; assay: cells
Summary of the method: as §1

[4] = tested on: HeLa; assay: Inhibition of cells growth by colorimetric assay (SRB)
Summary of the method: as §1

[5] = tested on: DU-145; assay: as above
Summary of the method: as §1

[6] = tested on: IGROV-ET; assay: as above
Summary of the method: as §1

[7] = tested on: PANC-1; assay: as above
Summary of the method: as §1

[8] = tested on: LoVo-Dox; assay: as above
Summary of the method: as §1

[9] = tested on: K-562; assay: as above
Summary of the method: as §1

[10] = tested on: HeLa-APL; assay: as above
Summary of the method: as §1

[11] = tested on: IGROV-1; assay: as above
Summary of the method: as §1

[12] = tested on: SK-BR-3; assay: as above
Summary of the method: as §1

[13] = tested on: SK-MEL-28; assay: as above
Summary of the method: as §1

[14] = tested on: LNCaP; assay: as above
Summary of the method: as §1

In the case of `COc1cc2c(cc1O)CCN[C@]21CS[C@@H]2c3c(OC(=O)/C=C/c4ccccc4)c(C)c4c(c3[C@H](COC1=O)N1C2[C@@H]2N[C@@H](Cc3cc(C)c(OC)c(O)c32)[C@@H]1C#N)OCO4` (stereo partly drawn) [compound 51], the GI50 ([1]; Homo sapiens, HT-29, 48 h, read-out: HT29 GI50) is reported as 5.24 nM, the CC50 ([1]; Homo sapiens, HT-29, 48 h, read-out: HT29 LC50) is reported as 0.0118 µM and the IC (TGI) ([1]; Homo sapiens, HT-29, 48 h, read-out: HT29 TGI) is reported as 2.37 µM. It also gave a GI50 ([2]; Homo sapiens, A549, 48 h, read-out: A549 GI50) of 2.85 nM, a CC50 ([2]; Homo sapiens, A549, 48 h, read-out: A549 LC50) of 542 nM and an IC (TGI) ([2]; Homo sapiens, A549, 48 h, read-out: A549 TGI) of 6.59 nM. The GI50 ([3]; Homo sapiens, LoVo, 48 h, read-out: LOVO GI50) was 3.93 nM, the CC50 ([3]; Homo sapiens, LoVo, 48 h, read-out: LOVO LC50) was 11.8 µM and the IC (TGI) ([3]; Homo sapiens, LoVo, 48 h, read-out: LOVO TGI) was 8.86 nM. For the same molecule, the GI50 ([4]; Homo sapiens, HeLa, 48 h, read-out: HELA GI50) was 3.43 nM, the CC50 ([4]; Homo sapiens, HeLa, 48 h, read-out: HELA LC50) was 15.5 nM and the IC (TGI) ([4]; Homo sapiens, HeLa, 48 h, read-out: HELA TGI) was 6.63 nM. It also gave a GI50 ([5]; Homo sapiens, DU-145, 48 h, read-out: DU145 GI50) of 5.24 nM, a CC50 ([5]; Homo sapiens, DU-145, 48 h, read-out: DU145 LC50) of 11.8 µM and an IC (TGI) ([5]; Homo sapiens, DU-145, 48 h, read-out: DU145 TGI) of 0.0163 µM. It also gave a GI50 ([6]; Homo sapiens, 48 h, read-out: IGROV-ET GI50) of 43.6 nM, a CC50 ([6]; Homo sapiens, 48 h, read-out: IGROV-ET LC50) of 11.8 µM and an IC (TGI) ([6]; Homo sapiens, 48 h, read-out: IGROV-ET TGI) of 0.118 µM. It also gave a GI50 ([7]; Homo sapiens, PANC-1, 48 h, read-out: PANC-1 GI50) of 3.53 nM, a CC50 ([7]; Homo sapiens, PANC-1, 48 h, read-out: PANC-1 LC50) of 0.52 µM and an IC (TGI) ([7]; Homo sapiens, PANC-1, 48 h, read-out: PANC-1 TGI) of 7.73 nM. The GI50 ([8]; Homo sapiens, 48 h, read-out: LOVO-DOX GI50) was 352 nM, the CC50 ([8]; Homo sapiens, 48 h, read-out: LOVO-DOX LC50) was 11.8 µM and the IC (TGI) ([8]; Homo sapiens, 48 h, read-out: LOVO-DOX TGI) was 11.8 µM. For the same molecule, the GI50 ([9]; Homo sapiens, K562, 48 h, read-out: K562 GI50) was 3.15 nM, the CC50 ([9]; Homo sapiens, K562, 48 h, read-out: K562 LC50) was 653 nM and the IC (TGI) ([9]; Homo sapiens, K562, 48 h, read-out: K562 TGI) was 7.75 nM. For the same molecule, the GI50 ([10]; Homo sapiens, 48 h, read-out: HELA-APL GI50) was 3.49 nM, the CC50 ([10]; Homo sapiens, 48 h, read-out: HELA-APL LC50) was 10.9 nM and the IC (TGI) ([10]; Homo sapiens, 48 h, read-out: HELA-APL TGI) was 6.18 nM. It also gave a GI50 ([11]; Homo sapiens, IGROV-1, 48 h, read-out: IGROV GI50) of 3.35 nM, a CC50 ([11]; Homo sapiens, IGROV-1, 48 h, read-out: IGROV LC50) of 118 µM and an IC (TGI) ([11]; Homo sapiens, IGROV-1, 48 h, read-out: IGROV TGI) of 6.45 nM. It also gave a GI50 ([12]; Homo sapiens, SK-BR-3, 48 h, read-out: SK-BR3 GI50) of 5.05 nM, a CC50 ([12]; Homo sapiens, SK-BR-3, 48 h, read-out: SK-BR3 LC50) of 11.8 µM and an IC (TGI) ([12]; Homo sapiens, SK-BR-3, 48 h, read-out: SK-BR3 TGI) of 0.344 µM. For the same molecule, the GI50 ([13]; Homo sapiens, SK-MEL-28, 48 h, read-out: MEL-28 GI50) was 2.71 nM, the CC50 ([13]; Homo sapiens, SK-MEL-28, 48 h, read-out: MEL-28 LC50) was 7.94 nM and the IC (TGI) ([13]; Homo sapiens, SK-MEL-28, 48 h, read-out: MEL-28 TGI) was 4.64 nM. The GI50 ([14]; Homo sapiens, LNCaP, 48 h, read-out: LNCAP GI50) was 2.31 nM, the CC50 ([14]; Homo sapiens, LNCaP, 48 h, read-out: LNCAP LC50) was 6.82 nM and the IC (TGI) ([14]; Homo sapiens, LNCaP, 48 h, read-out: LNCAP TGI) was 3.96 nM.
`C=CCN1C2Cc3cc(C)c(OC)c(O)c3C1C1C3SCC(NC(=O)CC)C(=O)OCC(c4c5c(c(C)c(OC(C)=O)c43)OCO5)N1C2C#N` (stereo not drawn) [compound 27] was tested, and the “TGI HT29” value ([1]; HT29, SRB, 48 hours exposure) was 1.42E−06 Molar, the GI50 ([1]; read-out: GI50 HT29, HT29, SRB, 48 hours exposure) was 75.6 nM and the CC50 ([1]; read-out: LC50 HT29, HT29, SRB, 48 hours exposure) was 14.2 µM. The “TGI A549” value ([2]; A549, SRB, 48 hours exposure) was 2.06E−07 Molar, the GI50 ([2]; read-out: GI50 A549, A549, SRB, 48 hours exposure) was 62.6 nM and the CC50 ([2]; read-out: LC50 A549, A549, SRB, 48 hours exposure) was 1890 nM. The “TGI LOVO” value ([3]; LOVO, SRB, 48 hours exposure) was 2.36E−07 Molar, the GI50 ([3]; read-out: GI50 LOVO, LOVO, SRB, 48 hours exposure) was 80.4 nM and the CC50 ([3]; read-out: LC50 LOVO, LOVO, SRB, 48 hours exposure) was 0.707 µM. The “TGI HELA” value ([4]; HELA, SRB, 48 hours exposure) was 2.75E−07 Molar, the GI50 ([4]; read-out: GI50 HELA, HELA, SRB, 48 hours exposure) was 97.8 nM and the CC50 ([4]; read-out: LC50 HELA, HELA, SRB, 48 hours exposure) was 786 nM. The “TGI DU145” value ([5]; DU145, SRB, 48 hours exposure) was 8.48E−07 Molar, the GI50 ([5]; read-out: GI50 DU145, DU145, SRB, 48 hours exposure) was 75.5 nM and the CC50 ([5]; read-out: LC50 DU145, DU145, SRB, 48 hours exposure) was 14.2 µM. For the same molecule, the “TGI IGROV-ET” value ([6]; IGROV-ET, SRB, 48 hours exposure) was 3.87E−07 Molar, the GI50 ([6]; read-out: GI50 IGROV-ET, IGROV-ET, SRB, 48 hours exposure) was 165 nM and the CC50 ([6]; read-out: LC50 IGROV-ET, IGROV-ET, SRB, 48 hours exposure) was 0.915 µM. For the same molecule, the “TGI PANC-1” value ([7]; PANC-1, SRB, 48 hours exposure) was 1.45E−06 Molar, the GI50 ([7]; read-out: GI50 PANC-1, PANC-1, SRB, 48 hours exposure) was 92.8 nM and the CC50 ([7]; read-out: LC50 PANC-1, PANC-1, SRB, 48 hours exposure) was 14.2 µM. For the same molecule, the “TGI LOVO-DOX” value ([8]; LOVO-DOX, SRB, 48 hours exposure) was 1.42E−05 Molar, the GI50 ([8]; read-out: GI50 LOVO-DOX, LOVO-DOX, SRB, 48 hours exposure) was 431 nM and the CC50 ([8]; read-out: LC50 LOVO-DOX, LOVO-DOX, SRB, 48 hours exposure) was 14.2 µM. The “TGI K562” value ([9]; K562, SRB, 48 hours exposure) was 5.66E−08 Molar, the GI50 ([9]; read-out: GI50 K562, K562, SRB, 48 hours exposure) was 21.7 nM and the CC50 ([9]; read-out: LC50 K562, K562, SRB, 48 hours exposure) was 206 nM. For the same molecule, the “TGI HELA-APL” value ([10]; HELA-APL, SRB, 48 hours exposure) was 3.04E−07 Molar, the GI50 ([10]; read-out: GI50 HELA-APL, HELA-APL, SRB, 48 hours exposure) was 95.1 nM and the CC50 ([10]; read-out: LC50 HELA-APL, HELA-APL, SRB, 48 hours exposure) was 951 nM. For the same molecule, the “TGI IGROV” value ([11]; IGROV, SRB, 48 hours exposure) was 1.02E−07 Molar, the GI50 ([11]; read-out: GI50 IGROV, IGROV, SRB, 48 hours exposure) was 40.7 nM and the CC50 ([11]; read-out: LC50 IGROV, IGROV, SRB, 48 hours exposure) was 1.02 µM. The “TGI SK-BR3” value ([12]; SK-BR3, SRB, 48 hours exposure) was 1.97E−07 Molar, the GI50 ([12]; read-out: GI50 SK-BR3, SK-BR3, SRB, 48 hours exposure) was 55.8 nM and the CC50 ([12]; read-out: LC50 SK-BR3, SK-BR3, SRB, 48 hours exposure) was 1.05 µM. For the same molecule, the “TGI MEL-28” value ([13]; MEL-28, SRB, 48 hours exposure) was 1.34E−07 Molar, the GI50 ([13]; read-out: GI50 MEL-28, MEL-28, SRB, 48 hours exposure) was 61.4 nM and the CC50 ([13]; read-out: LC50 MEL-28, MEL-28, SRB, 48 hours exposure) was 594 nM. For the same molecule, the “TGI LNCAP” value ([14]; LNCAP, SRB, 48 hours exposure) was 6.46E−08 Molar, the GI50 ([14]; read-out: GI50 LNCAP, LNCAP, SRB, 48 hours exposure) was 26.1 nM and the CC50 ([14]; read-out: LC50 LNCAP, LNCAP, SRB, 48 hours exposure) was 261 nM.
